In patent publication US7858620B2, “Cyanoisoquinoline” (H. Lundbeck A/S, priority 2007, dated 2010):

Target: T1, PDE10A enzyme (Homo sapiens, UniProt Q9Y233)
T1 construct: made in house; host or cells: E. coli BL21(DE3)
Test: PDE10A inhibition assay, SPA
Format: biochemical
Details: column head 2,1334003; unit inferred, nM
Experimental: Active PDE10A enzyme is prepared in a number of ways for use in PDE assays (Loughney, K. et al. Gene 1999, 234, 109-117; Fujishige, K. et al. Eur J Biochem. 1999, 266, 1118-1127 and Soderling, S. et al. Proc. Natl. Acad. Sci. 1999, 96, 7071-7076). PDE10A can be expressed as full-length proteins or as truncated proteins, as long as they express the catalytic domain. PDE10A can be prepared in different cell types, for example insect cells or E. coli. An example of a method to obtain catalytically active PDE10A is as follows: The catalytic domain of human PDE10A (amino acids 440-779 from the sequence with accession number NP 006652) is amplified from total human brain total RNA by standard RT-PCR and is cloned into the BamH1 and Xho1 sites of the pET28a vector (Novagen). Expression in coli is performed according to standard protocols. Briefly, the expression plasmids are transformed into the BL21(DE3) E. coli strain, and 50 mL cultures inoculated with the cells allowed to grow to an OD600 of 0.4-0.6 before protein expression is induced with 0.5 mM IPTG. Following induction, the cells are incubated overnight at room temperature, after which the cells are collected by centrifugation. Cells expressing PDE10A are resuspended in 12 mL (50 mM TRIS-HCl-pH8.0, 1 mM MgCl2 and protease inhibitors). The cells are lysed by sonication, and after all cells are lysed, TritonX100 is added according to Novagen protocols.
PDE10A and Pde3A assays can for example be performed as follows: PDE10A and Pde3A assays are performed in 60 uL samples containing a fixed amount of the relevant PDE enzyme (sufficient to convert 20-25% of the cyclic nucleotide substrate), a buffer (50 mM HEPES7.6; 10 mM MgCl2; 0.02% Tween20), 0.1 mg/ml BSA, 225 pCi of ^3H-labelled cyclic nucleotide substrate, tritium labeled cAMP to a final concentration of 5 nM and varying amounts of inhibitors. Reactions are initiated by addition of the cyclic nucleotide substrate, and reactions are allowed to proceed for one hr at room temperature before being terminated through mixing with 15 uL 8 mg/mL yttrium silicate SPA beads (Amersham). The beads are allowed to settle for one hr in the dark before the plates are counted in a Wallac 1450 Microbeta counter. The measured signal can be converted to activity relative to an uninhibited control (100%) and IC50 values can be calculated using the Xlfit extension to EXCEL.

T1 sequence (Q9Y233 716-1055): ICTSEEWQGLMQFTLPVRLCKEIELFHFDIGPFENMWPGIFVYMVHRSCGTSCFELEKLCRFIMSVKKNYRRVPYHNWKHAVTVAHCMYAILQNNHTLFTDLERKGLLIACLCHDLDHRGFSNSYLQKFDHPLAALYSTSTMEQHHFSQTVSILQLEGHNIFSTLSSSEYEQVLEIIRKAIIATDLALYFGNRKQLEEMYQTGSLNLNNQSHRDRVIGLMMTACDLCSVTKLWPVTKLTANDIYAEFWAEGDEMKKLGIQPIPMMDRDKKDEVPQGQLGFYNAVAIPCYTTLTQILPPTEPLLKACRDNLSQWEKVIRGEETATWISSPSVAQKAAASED

Row | SMILES | IC50 [nM]
1 | COc1cc2c(C#N)cnc(N3CCSC(c4ccccc4)C3)c2cc1OC (centres unmarked) [Compound 29, 6,7-Dimethoxy-1-(2-phenyl-thiomorpholin-4-yl)-isoquinoline-4-carbonitrile] | 2500
2 | COc1ccc(C2CN(c3ncc(C#N)c4cc(OC)c(OC)cc34)CCN2)cc1 (centres unmarked) [Compound 5, 6,7-Dimethoxy-1-[3-(4-methoxy-phenyl)-piperazin-1-yl]-isoquinoline-4-carbonitrile] | 54
3 | COc1cc2c(C#N)cnc(N3CCNC(c4ccc(C(F)(F)F)cc4)C3)c2cc1OC (centres unmarked) [Compound 13, 6,7-Dimethoxy-1-[3-(4-trifluoromethyl-phenyl)-piperazin-1-yl]-isoquinoline-4-carbonitrile] | 160
4 | COc1cc2c(C#N)cnc(N3CCNC(c4ccc(Cl)cc4Cl)C3)c2cc1OC (centres unmarked) [Compound 15, 1-[3-(2,4-Dichloro-phenyl)-piperazin-1-yl]-6,7-dimethoxy-isoquinoline-4-carbonitrile] | 520
5 | COc1cc2c(C#N)cnc(N3CCNC(c4cc(F)c(Cl)cc4Cl)C3)c2cc1OC (centres unmarked) [Compound 17, 1-[3-(2,4-Dichloro-5-fluoro-phenyl)-piperazin-1-yl]-6,7-dimethoxy-isoquinoline-4-carbonitrile] | 1000
6 | COc1ccc(C2CN(c3ncc(C#N)c4cc(OC)c(OC)cc34)CCO2)cc1 (centres unmarked) [Compound 18, 6,7-Dimethoxy-1-[2-(4-methoxy-phenyl)-morpholin-4-yl]-isoquinoline-4-carbonitrile] | 97
7 | COc1cc2c(C#N)cnc(N3CCNC(c4cccc(Cl)c4)C3)c2cc1OC (centres unmarked) [Compound 26, 1-[3-(3-Chloro-phenyl)-piperazin-1-yl]-6,7-dimethoxy-isoquinoline-4-carbonitrile] | 390
8 | COc1cc(OC)cc(C2CN(c3ncc(C#N)c4cc(OC)c(OC)cc34)CCN2)c1 (centres unmarked) [Compound 11, 1-[3-(3,5-Dimethoxy-phenyl)-piperazin-1-yl]-6,7-dimethoxy-isoquinoline-4-carbonitrile] | 41
9 | COc1ccc(C2CN(c3nc(C)c(C#N)c4cc(OC)c(OC)cc34)CCN2)cc1 (centres unmarked) [Compound 32, 6,7-Dimethoxy-1-[3-(4-methoxy-phenyl)-piperazin-1-yl]-3-methyl-isoquinoline-4-carbonitrile] | 290
10 | COc1cccc(C2CN(c3ncc(C#N)c4cc(OC)c(OC)cc34)CCN2)c1 (single isomer, unassigned; (+)) [Compound 23, (+)-6,7-Dimethoxy-1-[3-(3-methoxy-phenyl)-piperazin-1-yl]-isoquinoline-4-carbonitrile] | 1300
11 | COc1cccc(C2CN(c3nc(C)c(C#N)c4cc(OC)c(OC)cc34)CCN2)c1 (centres unmarked) [Compound 3, 6,7-Dimethoxy-1-[3-(3-methoxy-phenyl)-piperazin-1-yl]-3-methyl-isoquinoline-4-carbonitrile] | 240
12 | COc1ccc(OC)c(C2CN(c3nc(C)c(C#N)c4cc(OC)c(OC)cc34)CCN2)c1 (centres unmarked) [Compound 36, 1-[3-(2,5-Dimethoxy-phenyl)-piperazin-1-yl]-6,7-dimethoxy-3-methyl-isoquinoline-4-carbonitrile] | 960
13 | COc1cc2c(N3CCNC(c4ccc5ccccc5c4)C3)nc(C)c(C#N)c2cc1OC (centres unmarked) [Compound 33, 6,7-Dimethoxy-3-methyl-1-(3-naphthalen-2-yl-piperazin-1-yl)-isoquinoline-4-carbonitrile] | 2100
14 | COc1ccc2cc(C3CN(c4ncc(C#N)c5cc(OC)c(OC)cc45)CCN3)ccc2c1 (centres unmarked) [Compound 28, 6,7-Dimethoxy-1-[3-(6-methoxy-naphthalen-2-yl)-piperazin-1-yl]-isoquinoline-4-carbonitrile] | 330
15 | COc1cc2c(N3CCNC(c4cccc5ccccc45)C3)nc(C)c(C#N)c2cc1OC (centres unmarked) [Compound 34, 6,7-Dimethoxy-3-methyl-1-(3-naphthalen-1-yl-piperazin-1-yl)-isoquinoline-4-carbonitrile] | 880
16 | COc1cc2c(C#N)cnc(N3CCOC(c4ccccc4Cl)C3)c2cc1OC (centres unmarked) [Compound 21, 1-[2-(2-Chloro-phenyl)-morpholin-4-yl]-6,7-dimethoxy-isoquinoline-4-carbonitrile] | 530
17 | COc1cc2c(C#N)cnc(N3CCNC(c4ccc(Br)cc4)C3)c2cc1OC (centres unmarked) [Compound 27, 1-[3-(4-Bromo-phenyl)-piperazin-1-yl]-6,7-dimethoxy-isoquinoline-4-carbonitrile] | 510

More lines, now with the values ahead:

Row | IC50 [nM] | SMILES
18 | 410 | COc1cc2c(C#N)cnc(N3CCN[C@@H](c4ccccc4)C3)c2cc1OC [Compound 44, 6,7-Dimethoxy-1-((S)-3-phenyl-piperazin-1-yl)-isoquinoline-4-carbonitrile]
19 | 1200 | COc1ccc([C@@H]2CN(c3ncc(C#N)c4cc(OC)c(OC)cc34)CCN2)cc1 [Compound 61, 6,7-Dimethoxy-1-[(R)-3-(4-methoxy-phenyl)-piperazin-1-yl]-isoquinoline-4-carbonitrile]
20 | 850 | COc1ccc(C2CN(c3ncc(C#N)c4cc(OC)c(OC)cc34)CCN2)c(OC)c1 (centres unmarked) [Compound 58, 1-[3-(2,4-Dimethoxy-phenyl)-piperazin-1-yl]-6,7-dimethoxy-isoquinoline-4-carbonitrile]
21 | 870 | COc1cc2c(C#N)cnc(N3CCNC(c4ccc(OC(C)C)c(C)c4)C3)c2cc1OC (centres unmarked) [Compound 63, 1-[3-(4-Isopropoxy-3-methyl-phenyl)-piperazin-1-yl]-6,7-dimethoxy-isoquinoline-4-carbonitrile]
22 | 1500 | COc1cc2c(N3CCNC(c4cc(OC)c(OC)c(OC)c4)C3)nc(C)c(C#N)c2cc1OC (centres unmarked) [Compound 48, 6,7-Dimethoxy-3-methyl-1-[3-(3,4,5-trimethoxy-phenyl)-piperazin-1-yl]-isoquinoline-4-carbonitrile]
23 | 1200 | COc1cc2c(N3CCNC(c4ccc(N(C)C)cc4)C3)nc(C)c(C#N)c2cc1OC (centres unmarked) [Compound 47, 1-[3-(4-Dimethylamino-phenyl)-piperazin-1-yl]-6,7-dimethoxy-3-methyl-isoquinoline-4-carbonitrile]
24 | 1100 | COc1cc2c(N3CCNC(c4cccc([N+](=O)[O-])c4)C3)nc(C)c(C#N)c2cc1OC (centres unmarked) [Compound 50, 6,7-Dimethoxy-3-methyl-1-[3-(3-nitro-phenyl)-piperazin-1-yl]-isoquinoline-4-carbonitrile]
25 | 130 | COc1cc2c(C#N)cnc(N3CCNC(c4ccc5c(c4)OCCO5)C3)c2cc1OC (centres unmarked) [Compound 66, 1-[3-(2,3-Dihydro-benzo[1,4]dioxin-6-yl)-piperazin-1-yl]-6,7-dimethoxy-isoquinoline-4-carbonitrile]
26 | 1400 | COc1cc2c(N3CCNC(c4ccccc4OC)C3)nc(C)c(C#N)c2cc1OC (centres unmarked) [Compound 42, 6,7-Dimethoxy-1-[3-(2-methoxy-phenyl)-piperazin-1-yl]-3-methyl-isoquinoline-4-carbonitrile]
27 | 47 | COc1ccc([C@H]2CN(c3ncc(C#N)c4cc(OC)c(OC)cc34)CCN2)cc1 [Compound 62, 6,7-Dimethoxy-1-[(S)-3-(4-methoxy-phenyl)-piperazin-1-yl]-isoquinoline-4-carbonitrile]
28 | 460 | COc1cc2c(N3CCN[C@@H](c4ccccc4)C3)nc(C)c(C#N)c2cc1OC [Compound 49, 6,7-Dimethoxy-3-methyl-1-((S)-3-phenyl-piperazin-1-yl)-isoquinoline-4-carbonitrile]
29 | 36 | COc1ccc(C2CN(c3ncc(C#N)c4cc(OC)c(OC)cc34)CCN2)cc1F (centres unmarked) [Compound 54, 1-[3-(3-Fluoro-4-methoxy-phenyl)-piperazin-1-yl]-6,7-dimethoxy-isoquinoline-4-carbonitrile]
30 | 440 | COc1cc2c(C#N)cnc(N3CCNC(c4ccc(OC)c(C(F)(F)F)c4)C3)c2cc1OC (centres unmarked) [Compound 68, 6,7-Dimethoxy-1-[3-(4-methoxy-3-trifluoromethyl-phenyl)-piperazin-1-yl]-isoquinoline-4-carbonitrile]
31 | 2100 | COc1cc(C)c(C2CN(c3ncc(C#N)c4cc(OC)c(OC)cc34)CCN2)c(C)c1 (centres unmarked) [Compound 64, 6,7-Dimethoxy-1-[3-(4-methoxy-2,6-dimethyl-phenyl)-piperazin-1-yl]-isoquinoline-4-carbonitrile]
32 | 66 | COc1ccc(C2CN(c3ncc(C#N)c4cc(OC)c(OC)cc34)CCN2)cc1NC(C)=O (centres unmarked) [Compound 70, N-{5-[4-(4-Cyano-6,7-dimethoxy-isoquinolin-1-yl)-piperazin-2-yl]-2-methoxy-phenyl}-acetamide]
